target: T1, HDAC6 human recombinant (Homo sapiens, UniProt Q9UBN7); assay: HDAC enzyme activity inhibition (in vitro), fluorimetric HDAC6 assay; assay type: biochemical; conditions: samples at 0.1, 1, 10, 100 and 1000 nM, 37° C. 60 minutes, fluorescence Ex 390, Em 460
T1 sequence (Q9UBN7 1-1215): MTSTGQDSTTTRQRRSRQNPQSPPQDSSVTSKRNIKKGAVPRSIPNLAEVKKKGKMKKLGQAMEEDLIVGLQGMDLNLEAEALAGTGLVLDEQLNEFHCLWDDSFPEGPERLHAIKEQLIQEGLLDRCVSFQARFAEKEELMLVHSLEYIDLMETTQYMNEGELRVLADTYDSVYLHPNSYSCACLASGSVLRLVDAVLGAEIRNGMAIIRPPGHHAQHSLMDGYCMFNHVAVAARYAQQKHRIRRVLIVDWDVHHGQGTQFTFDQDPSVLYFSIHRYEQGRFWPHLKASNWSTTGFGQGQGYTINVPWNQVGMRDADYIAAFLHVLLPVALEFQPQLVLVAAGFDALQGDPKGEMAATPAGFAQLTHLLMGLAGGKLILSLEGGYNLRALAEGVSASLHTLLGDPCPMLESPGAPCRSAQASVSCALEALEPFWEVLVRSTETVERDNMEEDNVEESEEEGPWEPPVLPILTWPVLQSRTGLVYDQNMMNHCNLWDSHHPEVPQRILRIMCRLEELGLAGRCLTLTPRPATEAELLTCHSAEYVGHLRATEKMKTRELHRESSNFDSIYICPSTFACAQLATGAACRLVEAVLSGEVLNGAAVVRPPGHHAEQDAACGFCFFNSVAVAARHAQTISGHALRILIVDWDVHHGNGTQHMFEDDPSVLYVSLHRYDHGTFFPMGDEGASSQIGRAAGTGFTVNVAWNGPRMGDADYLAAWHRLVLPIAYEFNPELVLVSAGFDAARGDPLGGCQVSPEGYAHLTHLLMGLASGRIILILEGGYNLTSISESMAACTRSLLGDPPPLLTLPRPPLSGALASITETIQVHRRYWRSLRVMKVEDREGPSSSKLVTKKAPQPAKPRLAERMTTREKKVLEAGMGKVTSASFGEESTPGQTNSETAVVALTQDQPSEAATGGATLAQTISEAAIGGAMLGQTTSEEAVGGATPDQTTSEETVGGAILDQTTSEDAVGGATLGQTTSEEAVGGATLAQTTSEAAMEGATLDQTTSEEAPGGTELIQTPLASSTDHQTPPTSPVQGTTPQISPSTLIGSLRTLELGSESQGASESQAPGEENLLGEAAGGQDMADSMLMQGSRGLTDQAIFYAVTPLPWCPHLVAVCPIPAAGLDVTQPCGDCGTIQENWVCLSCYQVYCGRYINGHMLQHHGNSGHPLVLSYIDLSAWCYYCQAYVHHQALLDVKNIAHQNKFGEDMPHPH
Procedure: To identify this, HDAC1/6 enzyme selectivity and cell selectivity (HDAC1: histone acetylation/HDAC6: tubulin acetylation) were investigated accordingly.
An HDAC enzyme inhibitory ability of a test material was measured by means of HDAC1 Fluorimetric Drug Discovery Assay Kit (Enzolifesciences: BML-AK511) and HDAC6 human recombinant (Calbiochem: 382180). For an HDAC1 assay, samples were treated at a concentration of 100, 1000 and 10000 nM. For an HDAC6 assay, samples were treated at a concentration of 0.1, 1, 10, 100 and 1000 nM. After such sample treatment, a reaction was continued at 37° C. for 60 minutes, then treated with a developer, and then subjected to reaction at 37° C. for 30 minutes, after which fluorescence intensity (Ex 390, Em 460) was measured by means of FlexStation3 (Molecular device).

Row | IC50 [nM] | SMILES
1 | 284 | CCn1ccc(-c2nnc(C(F)F)o2)cc1=O [Compound 55, 4-(5-(difluoromethyl)-1,3,4-oxadiazole-2-yl)-1-ethylpyridine-2(1H)-one]
2 | 126 | O=C(Cn1ccc(-c2nnc(C(F)F)o2)cc1=O)c1ccc(Cl)s1 [Compound 56, 1-(2-(5-chlorothiophene-2-yl)-2-oxoethyl)-4-(5-(difluoromethyl)-1,3,4-oxadiazole-2-yl)pyridine-2(1H)-one]
3 | 301 | O=C(N[C@@H](Cn1ccc(-c2nnc(C(F)F)o2)cc1=O)c1ccccc1)N1CCOCC1 [Compound 57, (R)—N-(2-(4-(5-(difluoromethyl)-1,3,4-oxadiazole-2-yl)-2-oxopyridine-1(2H)-yl)-1-phenylethyl)morpholine-4-carboxamide]
4 | 358 | O=C(N[C@@H](Cn1ccc(-c2nnc(C(F)F)o2)cc1=O)c1ccccc1)N1CCS(=O)(=O)CC1 [Compound 58, (R)—N-(2-(4-(5-(difluoromethyl)-1,3,4-oxadiazole-2-yl)-2-oxopyridine-1(2H)-yl)-1-phenylethyl)thiomorpholine-4-carboxamide 1,1-dioxide]
